Several values for one entry are separate records, joined by “and”; a condition that tells them apart may be missing. Equal entries are not always repeated.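 1) Cells in 96-well plates. 2) Compound, 48 h, 5 concentrations. 3) Linear interpolation between surrounding doses. 4) Unreached endpoint = highest concentration. Abbreviation: GI50, concentration required for 50% inhibition of growth. TGI denotes the concentration required for complete inhibition of growth.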
Tests used:
Experiment in all cases: growth of human tumour cells (NCI), 48 h
COLO 205 colon = tested on: COLO 205 colon
EKVX NSCLC = tested on: EKVX NSCLC
IGROV1 ovarian = tested on: IGROV1 ovarian
KM12 colon = tested on: KM12 colon
OVCAR-5 ovarian = tested on: OVCAR-5 ovarian
RXF 393 renal = tested on: RXF 393 renal
SK-MEL-2 melanoma = tested on: SK-MEL-2 melanoma
SK-MEL-28 melanoma = tested on: SK-MEL-28 melanoma
TK-10 renal = tested on: TK-10 renal
UO-31 renal = tested on: UO-31 renal

| SMILES | GI50 (COLO 205 colon) | TGI (COLO 205 colon) | GI50 (EKVX NSCLC) | TGI (EKVX NSCLC) | GI50 (IGROV1 ovarian) | TGI (IGROV1 ovarian) | GI50 (KM12 colon) | TGI (KM12 colon) | GI50 (OVCAR-5 ovarian) | TGI (OVCAR-5 ovarian) | GI50 (RXF 393 renal) | TGI (RXF 393 renal) | GI50 (SK-MEL-2 melanoma) | TGI (SK-MEL-2 melanoma) | GI50 (SK-MEL-28 melanoma) | TGI (SK-MEL-28 melanoma) | GI50 (TK-10 renal) | TGI (TK-10 renal) | GI50 (UO-31 renal) | TGI (UO-31 renal) |
| --- | --- | --- | --- | --- | --- | --- | --- | --- | --- | --- | --- | --- | --- | --- | --- | --- | --- | --- | --- | --- |
| CCCCCCCc1cc2c3c(nc4ccccc42)C(=O)c2cccnc2-c3n1 | 5.05 µM | 9.59 µM | 4.5 µM | 9.14 µM | 3.28 µM | 15.1 µM | 1.45 µM | 3.11 µM | 4.09 µM | 10.7 µM | 5.67 µM | 11.1 µM | 12.3 µM | 27.2 µM | 5.75 µM | 11 µM | 2.4 µM | 4.41 µM | 3.85 µM | 11 µM |
| CCOC(=O)c1c2c(n3ccccc13)C(=O)c1ncccc1C2=O | 1.65 µM | 4.93 µM | 1.13 µM | 19.3 µM | 0.0987 µM | 42.7 µM | 0.27 µM | 75.9 µM | 1.8 µM | 27.5 µM | 0.0792 µM | 13.9 µM | 8.23 µM | 90.3 µM | 0.134 µM | 33.3 µM | 0.354 µM | 20.2 µM | 0.0338 µM | 3.79 µM |
| O=C1C(=Cc2c(O)cc(O)cc2O)C(=O)c2ccccc21 |  | > 56 µM |  | > 100 µM |  | > 59.8 µM |  | > 51.4 µM |  | > 57.7 µM |  | 27.9 µM |  | > 56.5 µM |  | > 60.3 µM |  | > 67.5 µM |  | > 100 µM |
| O=c1c2cc(Cl)ccc2sc2cccc(Cl)c12 |  | > 100 µM |  | > 100 µM |  | > 100 µM |  | > 100 µM |  | > 100 µM |  | > 100 µM |  | > 100 µM |  | > 100 µM |  | > 100 µM |  | > 100 µM |
| CN1C(=O)C2C(C1=O)C1(O)c3ccccc3C2(N)c2ccccc21 (configuration not stated) |  | > 100 µM |  | > 100 µM |  | > 100 µM |  | > 100 µM |  | > 100 µM |  | > 100 µM |  | > 100 µM |  | > 100 µM |  | > 100 µM |  | > 100 µM |
| Cc1ccc(Cl)cc1NC(=O)c1sc2nc3c(cc2c1N)C(=O)CCC3 | 4.41 µM | > 100 µM | 7.26 µM | > 100 µM | > 100 µM | > 100 µM | 3.65 µM | > 100 µM | > 100 µM | > 100 µM | 2.48 µM | 6.96 µM | 3.14 µM | > 100 µM | > 100 µM | > 100 µM | 8.99 µM | > 100 µM | > 100 µM | > 100 µM |
| COc1ccc2c(c1)C(=O)c1c-2n(CCCI)c(=O)c2cc([N+](=O)[O-])ccc12 | 1.77 µM and 1.12 µM | 21.6 µM and 55.3 µM |  | 11.8 µM and > 100 µM |  | 50 µM and 72.3 µM | 0.939 µM and 1.77 µM | 50 µM and 46.6 µM |  | 7.75 µM and 46.3 µM | 0.319 µM and 0.789 µM | 3.57 µM and 13.8 µM | 8.01 µM and 16.4 µM | 47.2 µM and > 100 µM | 0.861 µM and 3.07 µM | 50 µM and > 100 µM | 33.1 µM and 19.4 µM | 50 µM and > 100 µM | 0.36 µM and 0.0716 µM | 13.1 µM and 10.4 µM |
| CCCSS[C@H]1NC(=O)[C@H]1NC(=O)COc1ccccc1 |  | 25 µM |  | 41.4 µM |  | 43.2 µM |  | 31.6 µM |  | > 100 µM |  | 29.7 µM |  | 33.5 µM |  | 30.3 µM |  | 63.9 µM |  | > 100 µM |
| Cc1cn(-c2cc(NC(=O)c3ccc(C)c(Nc4nccc(-c5cccnc5)n4)c3)cc(C(F)(F)F)c2)cn1 | 1.58 µM and 1.23 µM | 7.11 µM and 5.52 µM | 6.23 µM and 5.98 µM | > 10 µM and 26.1 µM | 2.23 µM and 1.83 µM | 5.06 µM and 4.2 µM | 3.81 µM and 2.72 µM | > 10 µM and 9.49 µM | > 10 µM and 3.48 µM | > 10 µM and 16.4 µM | 2.59 µM and 2.01 µM | 6.54 µM and 4.12 µM | 2.19 µM and 2.1 µM | > 10 µM and 10.4 µM | 1.81 µM and 1.4 µM | 5.97 µM and 3.18 µM | 5.26 µM and 4.07 µM | > 10 µM and 9.38 µM | 1.75 µM and 1.58 µM | 8.9 µM and 4.56 µM |
| N#CC1CCCCCCCCCCC(=O)N(CCCl)C1=O (configuration not stated) |  | > 100 µM |  | > 100 µM |  | > 100 µM |  | > 100 µM |  | > 100 µM |  | > 100 µM |  | > 100 µM |  | > 100 µM |  | > 100 µM |  | > 100 µM |
| CC(=O)OCc1cc2ccccc2nc1C(Br)(Br)Br |  | 55.2 µM |  | 41.8 µM |  | 25.7 µM |  | 27.6 µM |  | 30.7 µM |  | 33.4 µM |  | 41.9 µM |  | 42.6 µM |  | 36.7 µM |  | 29.5 µM |
| C#CCOc1cccc(Nc2ncnc3cc(NC(=O)CCl)ccc23)c1 | 5.04 µM | 19.8 µM | 12 µM | 30 µM | 2.78 µM | 11.9 µM | 4.34 µM | 16.8 µM | 10.3 µM | 23 µM | 13.2 µM | 27.7 µM | 12.4 µM | 27.4 µM | 11 µM | 24.4 µM | 5.22 µM | 19.3 µM | 3.31 µM | 15.7 µM |
| N#CC1(C#N)C(C#N)(C#N)C12CCCCCC2 |  | 33.7 µM |  | 31.9 µM |  | > 68.8 µM |  | 19.3 µM |  | 30 µM |  | 22.9 µM |  | 18.4 µM |  | 21.4 µM |  | 30.5 µM |  | 32.8 µM |
| CC(C)(c1ccccc1)c1ccc(OC#N)cc1 |  | > 56.5 µM |  | > 100 µM |  | > 100 µM |  | > 100 µM |  | > 100 µM |  | > 100 µM |  | > 100 µM |  | > 100 µM |  | > 100 µM |  | 98 µM |

— PubChem BioAssay (NCI)
